Measurements as given in PMC9120017, “Inhibition mechanism of the chloride channel TMEM16A by the pore blocker 1PBC” (Nature Communications, 2022).
Where two headings read alike, the source gives them in different places.

Target: T1, mouse TMEM16A mutant I636A (Mus musculus, UniProt Q8BHY3, I636A)
T1 construct: expressed in transfected cells; host or cells: HEK293T
T1 sequence (Q8BHY3 1-960 I636A): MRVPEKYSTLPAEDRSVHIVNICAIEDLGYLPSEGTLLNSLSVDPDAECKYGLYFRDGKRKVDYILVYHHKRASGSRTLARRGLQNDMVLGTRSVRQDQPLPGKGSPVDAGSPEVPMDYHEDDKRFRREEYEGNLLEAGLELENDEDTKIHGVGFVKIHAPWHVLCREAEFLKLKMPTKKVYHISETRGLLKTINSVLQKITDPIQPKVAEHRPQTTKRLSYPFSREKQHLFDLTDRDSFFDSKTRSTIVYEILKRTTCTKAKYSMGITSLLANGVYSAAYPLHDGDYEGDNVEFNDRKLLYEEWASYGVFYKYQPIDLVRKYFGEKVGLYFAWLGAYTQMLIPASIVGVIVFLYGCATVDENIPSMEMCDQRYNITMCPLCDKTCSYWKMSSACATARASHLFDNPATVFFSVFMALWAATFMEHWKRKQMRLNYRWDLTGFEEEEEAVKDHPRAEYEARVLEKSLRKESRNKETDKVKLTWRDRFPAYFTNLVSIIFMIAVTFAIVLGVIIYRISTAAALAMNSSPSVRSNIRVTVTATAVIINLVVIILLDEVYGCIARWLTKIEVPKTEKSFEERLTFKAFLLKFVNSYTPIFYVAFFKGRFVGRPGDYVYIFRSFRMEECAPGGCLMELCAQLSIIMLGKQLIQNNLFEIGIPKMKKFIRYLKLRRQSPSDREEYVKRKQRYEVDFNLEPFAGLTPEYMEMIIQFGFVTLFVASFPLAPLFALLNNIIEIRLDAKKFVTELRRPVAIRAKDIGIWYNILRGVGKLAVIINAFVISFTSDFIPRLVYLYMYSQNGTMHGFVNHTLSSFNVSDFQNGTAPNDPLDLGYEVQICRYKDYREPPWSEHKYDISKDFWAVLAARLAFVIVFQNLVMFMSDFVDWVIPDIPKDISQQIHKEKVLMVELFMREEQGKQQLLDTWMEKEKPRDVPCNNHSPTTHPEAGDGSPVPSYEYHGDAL
Experiment: Inside-out patch recording of 1PBC block, mutant I636A
Type: cell-based
Conditions: for remaining activity at 3 µM: 1PBC conc 3; for remaining activity at 3 µM / remaining activity at 10 µM / remaining activity at 30 µM / remaining activity at 100 µM: read-out: relative current in 1PBC (avr); for remaining activity at 10 µM: 1PBC conc 10; for remaining activity at 30 µM: 1PBC conc 30; for remaining activity at 100 µM: 1PBC conc 100
Protocol: HEK293T cells (ATCC CRL-1573) were maintained in Dulbecco’s modified Eagle’s medium (DMEM; Sigma-Aldrich) supplemented with 10 U ml^−1 penicillin, 0.1 mg ml^−1 streptomycin (Sigma-Aldrich), 2 mM L-glutamine (Sigma-Aldrich), and 10% FBS (Sigma-Aldrich) in a humidified atmosphere containing 5% CO2 at 37 °C. HEK293S GnTI^− cells (ATCC CRL-3022) were maintained in HyClone HyCell TransFx-H medium (GE Healthcare) supplemented with 10 U ml^−1 penicillin, 0.1 mg ml^−1 streptomycin, 4 mM L-glutamine, 0.15% poloxamer 188 (Sigma-Aldrich), and 1% FBS in an atmosphere containing 5% CO2 at 185 rpm at 37 °C. The ac splice variant of mouse TMEM16A (UniProt ID: Q8BHY3), mouse TMEM16B (UniProt ID: Q8CFW1), or mouse TMEM16F (UniProt ID: Q6P9J9) bearing a 3C cleavage site, a Venus YFP, a Myc tag, and a Streptavidin-binding peptide (SBP) downstream of the open reading frame in a modified pcDNA3.1 vector (Invitrogen) were used as described previously[21],[31]. Mutations were introduced using a modified QuikChange method[58] and were verified by sequencing.
HEK293T cells were transfected with 3–4 μg DNA per 6 cm Petri dish using the calcium phosphate co-precipitation method and were used within 24–96 h after transfection. Recordings were performed on inside-out patches excised from HEK293T cells expressing the construct of interest. Patch pipettes were pulled from borosilicate glass capillaries (O.D. 1.5 mm, I.D. 0.86 mm, Sutter Instrument) and were fire-polished with a microforge (Narishige) before use. Pipette resistance was typically 3–8 MΩ when filled with the recording solutions detailed below. Seal resistance was typically 4 GΩ or higher. Voltage-clamp recordings were made using Axopatch 200B, Digidata 1550, and Clampex 10.7 (Molecular Devices). Analog signals were filtered with the in-built 4-pole Bessel filter at 10 kHz and were digitized at 20 kHz. Solution exchange was achieved using a gravity-fed system through a theta glass pipette mounted on an ultra-fast piezo-driven stepper (Siskiyou). […] All recordings were performed at 20 °C.
A symmetrical ionic condition was used throughout. Stock solution with Ca^2+-EGTA contained 150 mM NaCl, 5.99 mM Ca(OH)2, 5 mM EGTA, and 10 mM HEPES at pH 7.40. Stock solution with EGTA contained 150 mM NaCl, 5 mM EGTA, and 10 mM HEPES at pH 7.40. Free Ca^2+ concentrations were adjusted by mixing the stock solutions at the required ratios calculated using the WEBMAXC program (http://web.stanford.edu/~cpatton/webmaxcS.htm). Patch pipettes were filled with the stock solution with Ca^2+-EGTA, which has a free Ca^2+ concentration of 1 mM. 1PBC (ChemBridge) stock was reconstituted in anhydrous DMSO (Sigma-Aldrich) at 100 mM and stored at −20 °C. Working solutions with 1PBC were prepared by serial dilution. Unless otherwise stated, experiments were performed at a saturating Ca^2+ concentration as shown in Supplementary Table 1 and the primary data were corrected for current rundown as described previously[21],[25].
Concentration-response relations, obtained from the ratio of the I-V plots before and after the application of the blocker, were fitted to the Hill equation,1 I/Imax=1/1+IC50/[blocker]^h where I/Imax is the normalized current responses, IC50 defines the concentration at which inhibition is at its half-maximum, and h is the Hill coefficient.

N#Cc1c(C(F)(F)F)cc(O)n2c1nc1ccccc12 [1PBC] was tested, and the IC50 (0 mV, 15 µM Ca2+) was 6.73 µM, the remaining activity at 3 µM (0 mV) was 68.4% and the remaining activity at 10 µM (0 mV) was 39.2%. It also gave a remaining activity at 30 µM (0 mV) of 19.6%, a remaining activity at 100 µM (0 mV) of 9.71% and an IC50 (20 mV, 15 µM Ca2+) of 5.47 µM. The remaining activity at 3 µM (20 mV) was 63.6%, the remaining activity at 10 µM (20 mV) was 34.4% and the remaining activity at 30 µM (20 mV) was 17.1%. For the same compound, the remaining activity at 100 µM (20 mV) was 9.23%, the IC50 (40 mV, 15 µM Ca2+) was 4.65 µM and the remaining activity at 3 µM (40 mV) was 60.6%. It also gave a remaining activity at 10 µM (40 mV) of 30.8%, a remaining activity at 30 µM (40 mV) of 15.1% and a remaining activity at 100 µM (40 mV) of 5.83%. For the same compound, the IC50 (60 mV, 15 µM Ca2+) was 4.03 µM, the remaining activity at 3 µM (60 mV) was 56.6% and the remaining activity at 10 µM (60 mV) was 27.9%. For the same compound, the remaining activity at 30 µM (60 mV) was 14.3%, the remaining activity at 100 µM (60 mV) was 6.18% and the “log-fold IC50 (change of mutant vs WT)” value (80 mV) was 0.2863. The IC50 (80 mV, 15 µM Ca2+) was 3.83 µM, the remaining activity at 3 µM (80 mV) was 55.6% and the remaining activity at 10 µM (80 mV) was 26.8%. For the same compound, the remaining activity at 30 µM (80 mV) was 13.6%, the remaining activity at 100 µM (80 mV) was 5.37% and the IC50 (100 mV, 15 µM Ca2+) was 3.89 µM. The remaining activity at 3 µM (100 mV) was 55.3%, the remaining activity at 10 µM (100 mV) was 27% and the remaining activity at 30 µM (100 mV) was 15.6%. For the same compound, the remaining activity at 100 µM (100 mV) was 5.12%, the IC50 (120 mV, 15 µM Ca2+) was 4.05 µM and the remaining activity at 3 µM (120 mV) was 56.6%. It also gave a remaining activity at 10 µM (120 mV) of 27.6%, a remaining activity at 30 µM (120 mV) of 16% and a remaining activity at 100 µM (120 mV) of 4.9%. The IC50 (140 mV, 15 µM Ca2+) was 4.5 µM, the remaining activity at 3 µM (140 mV) was 58.9% and the remaining activity at 10 µM (140 mV) was 29.8%. It also gave a remaining activity at 30 µM (140 mV) of 17.2%, a remaining activity at 100 µM (140 mV) of 5.22% and an IC50 (-20 mV, 15 µM Ca2+) of 8.22 µM. It also gave a remaining activity at 3 µM (-20 mV) of 73.2%, a remaining activity at 10 µM (-20 mV) of 44.1% and a remaining activity at 30 µM (-20 mV) of 22.1%. The remaining activity at 100 µM (-20 mV) was 10.2%, the IC50 (-40 mV, 15 µM Ca2+) was 10.2 µM and the remaining activity at 3 µM (-40 mV) was 77.7%. It also gave a remaining activity at 10 µM (-40 mV) of 49.5%, a remaining activity at 30 µM (-40 mV) of 25.2% and a remaining activity at 100 µM (-40 mV) of 11%. For the same compound, the IC50 (-60 mV, 15 µM Ca2+) was 12.5 µM, the remaining activity at 3 µM (-60 mV) was 81.7% and the remaining activity at 10 µM (-60 mV) was 54.6%. It also gave a remaining activity at 30 µM (-60 mV) of 29.3%, a remaining activity at 100 µM (-60 mV) of 11.8% and an IC50 (-80 mV, 15 µM Ca2+) of 16 µM. It also gave a remaining activity at 3 µM (-80 mV) of 85.2%, a remaining activity at 10 µM (-80 mV) of 60.7% and a remaining activity at 30 µM (-80 mV) of 34%. It also gave a remaining activity at 100 µM (-80 mV) of 16.3%, an IC50 (-100 mV, 15 µM Ca2+) of 19.2 µM and a remaining activity at 3 µM (-100 mV) of 87.8%. For the same compound, the remaining activity at 10 µM (-100 mV) was 65.1%, the remaining activity at 30 µM (-100 mV) was 37.6% and the remaining activity at 100 µM (-100 mV) was 18.6%. It also gave an IC50 (-120 mV, 15 µM Ca2+) of 23.6 µM, a remaining activity at 3 µM (-120 mV) of 90.9% and a remaining activity at 10 µM (-120 mV) of 69.5%. It also gave a remaining activity at 30 µM (-120 mV) of 41.8%, a remaining activity at 100 µM (-120 mV) of 22.1% and an IC50 (-140 mV, 15 µM Ca2+) of 27.8 µM. For the same compound, the remaining activity at 3 µM (-140 mV) was 92.3%, the remaining activity at 10 µM (-140 mV) was 72.1% and the remaining activity at 30 µM (-140 mV) was 45.6%. The remaining activity at 100 µM (-140 mV) was 25.9%, the IC50 (I636A, V 0 mV) was 6.73 µM and the IC50 (I636A, V 20 mV) was 5.47 µM. It also gave an IC50 (I636A, V 40 mV) of 4.65 µM, an IC50 (I636A, V 60 mV) of 4.03 µM and an IC50 (I636A, V 80 mV) of 3.83 µM. The IC50 (I636A, V 100 mV) was 3.89 µM, the IC50 (I636A, V 120 mV) was 4.05 µM and the IC50 (I636A, V 140 mV) was 4.5 µM. It also gave an IC50 (I636A, V -20 mV) of 8.22 µM, an IC50 (I636A, V -40 mV) of 10.2 µM and an IC50 (I636A, V -60 mV) of 12.5 µM. For the same compound, the IC50 (I636A, V -80 mV) was 16 µM, the IC50 (I636A, V -100 mV) was 19.2 µM and the IC50 (I636A, V -120 mV) was 23.6 µM. For the same compound, the IC50 (I636A, V -140 mV) was 27.8 µM.
